Data as given in article PMC10120535, “Identification of new 4-(6-oxopyridazin-1-yl)benzenesulfonamides as multi-target anti-inflammatory agents targeting carbonic anhydrase, COX-2 and 5-LOX enzymes: synthesis, biological evaluations and modelling insights” (Journal of Enzyme Inhibition and Medicinal Chemistry, 2023).

Tests used:
gastric tissue of rats = assay: acute ulcerogenic test, histopathology of gastric tissue; type: in vivo; conditions: fasted rat stomach, H & E stain
Text: (§1) The experimental procedures adopted to perform the acetic acid-induced writhing assay for the analgesic activities,[45] Paw edoema assay for the anti-inflammatory activities,[46] as well as the acute ulcerogenic test[47] have been carried out as described previously.

rat paw edoema = assay: carrageen-induced rat paw edoema assay (anti-inflammatory activity); type: in vivo; design: Anti-inflammatory activity (% inhibition of edoema) 3 h: concentration or dose not given beside the values; conditions: for FIF% change in paw height (Mean ± SD) 0 h / FIF% change in paw height (Mean ± SD) 1 h / FIF% change in paw height (Mean ± SD) 2 h / FIF% change in paw height (Mean ± SD) 3 h: n = 5
Text: as §1

mice = assay: acetic acid writhing test (analgesic activity); type: in vivo; conditions: for Number of writhing (20 min) (Mean ± SD): n = 5, control 40 ± 2.9
Text: as §1

COX-1 = target: T1, COX-1 (Ovis aries, UniProt P05979); assay: COX Inhibitor screening ELISA assay kit, COX-1
T1 sequence (P05979 25-600): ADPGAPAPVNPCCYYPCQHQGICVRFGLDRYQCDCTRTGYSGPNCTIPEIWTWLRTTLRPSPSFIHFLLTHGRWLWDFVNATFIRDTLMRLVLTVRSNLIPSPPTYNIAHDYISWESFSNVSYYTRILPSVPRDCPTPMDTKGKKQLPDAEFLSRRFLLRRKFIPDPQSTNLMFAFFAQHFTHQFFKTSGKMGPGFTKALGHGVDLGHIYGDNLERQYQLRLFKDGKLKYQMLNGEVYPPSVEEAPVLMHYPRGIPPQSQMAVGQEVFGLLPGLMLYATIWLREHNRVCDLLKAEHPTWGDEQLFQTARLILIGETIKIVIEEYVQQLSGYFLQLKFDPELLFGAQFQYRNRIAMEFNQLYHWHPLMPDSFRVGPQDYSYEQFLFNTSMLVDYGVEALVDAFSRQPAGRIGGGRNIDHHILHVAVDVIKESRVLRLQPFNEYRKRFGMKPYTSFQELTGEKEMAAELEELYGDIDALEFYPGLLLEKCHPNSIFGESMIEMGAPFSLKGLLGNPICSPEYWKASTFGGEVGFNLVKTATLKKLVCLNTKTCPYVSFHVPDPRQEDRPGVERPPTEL

TNF-α = assay: serum TNF-α level by ELISA after paw edoema test; type: in vivo, rat; conditions: compared to the positive control group, n = 5
Text: (§2) ELISA assays were used to assess the serum level for the inflammatory mediators TNF-α (Kit Cat. No MBS355371, MyBioSource, USA), and IL-1β (Kit Cat. No MBS8825017, MyBioSource, USA) based on the manufacture instructions.[54]

5-LOX = assay: LOX inhibitory screening assay kit; type: biochemical; conditions: mean from 3 different assays
IL-1β = assay: serum IL-1β level by ELISA after paw edoema test; type: in vivo, rat; conditions: compared to the positive control group, n = 5
Text: as §2

COX-2 = target: T2, COX-2 (Homo sapiens, UniProt P35354); assay: COX Inhibitor screening ELISA assay kit, COX-2
T2 sequence (P35354 18-604): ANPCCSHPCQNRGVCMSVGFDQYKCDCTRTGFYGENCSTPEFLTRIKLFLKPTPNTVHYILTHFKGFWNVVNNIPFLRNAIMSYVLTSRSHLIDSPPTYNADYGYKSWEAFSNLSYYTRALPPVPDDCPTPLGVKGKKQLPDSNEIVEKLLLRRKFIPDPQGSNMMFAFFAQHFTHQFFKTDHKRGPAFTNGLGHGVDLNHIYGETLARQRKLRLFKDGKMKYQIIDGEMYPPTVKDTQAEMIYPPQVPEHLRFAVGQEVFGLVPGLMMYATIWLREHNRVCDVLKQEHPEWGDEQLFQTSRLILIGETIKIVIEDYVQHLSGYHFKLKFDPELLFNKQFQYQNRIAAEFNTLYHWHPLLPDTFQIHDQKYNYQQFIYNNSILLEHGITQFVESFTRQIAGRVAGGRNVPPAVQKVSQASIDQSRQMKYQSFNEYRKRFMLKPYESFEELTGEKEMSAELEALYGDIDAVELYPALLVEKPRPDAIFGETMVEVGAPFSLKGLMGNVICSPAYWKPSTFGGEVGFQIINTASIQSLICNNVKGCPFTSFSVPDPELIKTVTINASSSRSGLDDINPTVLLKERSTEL

SMILES | IC50 (COX-1) [µM] | IC50 (5-LOX) [µM] | IC50 (COX-2) [nM] | Ulcerogenic effect on gastric tissue (histopathological examination) (gastric tissue of rats) | FIF% change in paw height (Mean ± SD) 0 h (rat paw edoema) [%] | FIF% change in paw height (Mean ± SD) 1 h (rat paw edoema) [%] | FIF% change in paw height (Mean ± SD) 2 h (rat paw edoema) [%] | Anti-inflammatory activity (% inhibition of edoema) 3 h (rat paw edoema) [%] | FIF% change in paw height (Mean ± SD) 3 h (rat paw edoema) [%] | Analgesic activity (% protection) (mice) [%] | Serum level of TNF-α (TNF-α) | Serum level of IL-1β (IL-1β) | Number of writhing (20 min) (Mean ± SD) (mice)
NS(=O)(=O)c1ccc(-n2nc(OCc3ccc([N+](=O)[O-])cc3)ccc2=O)cc1 [Compound 5b, 4–(3-((4-Nitrobenzyl)oxy)-6-oxopyridazin-1(6H)-yl)benzenesulfonamide] | 9.5 | 5 | 140 |  |  |  |  |  |  |  |  |  | 
O=C(O)Cc1ccccc1Nc1c(Cl)cccc1Cl [Diclofenac, reference compound] |  |  |  | inflammation and damage to the layers of the stomach | 0.52 ± 0.04 | 0.28 ± 0.04 | 0.32 ± 0.04 | 59 | 0.32 ± 0.04 | 70.0 |  |  | 12 ± 1.9
NS(=O)(=O)c1ccc(-n2nc(O)ccc2=O)cc1 [Compound 3, 4–(3-Hydroxy-6-oxopyridazin-1(6H)-yl)benzenesulfonamide] | 11.5 | 2 | 70 |  |  |  |  |  |  |  |  |  | 
N#Cc1ccc(COc2ccc(=O)n(-c3ccc(S(N)(=O)=O)cc3)n2)cc1 [Compound 5c, 4–(3-((4-Cyanobenzyl)oxy)-6-oxopyridazin-1(6H)-yl)benzenesulfonamide] | 6.5 | 7 | 70 |  |  |  |  |  |  |  |  |  | 
NS(=O)(=O)c1ccc(-n2nc(OCc3ccccc3)ccc2=O)cc1 [Compound 5a, 4–(3-(Benzyloxy)-6-oxopyridazin-1(6H)-yl)benzenesulfonamide] | 5 | 7 | 110 |  |  |  |  |  |  |  |  |  | 
Cc1ccc(-c2cc(C(F)(F)F)nn2-c2ccc(S(N)(=O)=O)cc2)cc1 [Celecoxib, reference compound] |  |  |  | normal texture | 0.5 ± 0.07 | 0.44 ± 0.09 | 0.52 ± 0.04 | 38.5 | 0.48 ± 0.04 | 60.0 |  |  | 16 ± 0.9

The next lines start with results.

IC50 (COX-1) [µM] | IC50 (5-LOX) [µM] | IC50 (COX-2) [nM] | SMILES | Ulcerogenic effect on gastric tissue (histopathological examination) (gastric tissue of rats) | FIF% change in paw height (Mean ± SD) 0 h (rat paw edoema) [%] | FIF% change in paw height (Mean ± SD) 1 h (rat paw edoema) [%] | FIF% change in paw height (Mean ± SD) 2 h (rat paw edoema) [%] | Anti-inflammatory activity (% inhibition of edoema) 3 h (rat paw edoema) [%] | FIF% change in paw height (Mean ± SD) 3 h (rat paw edoema) [%] | Analgesic activity (% protection) (mice) [%] | Serum level of TNF-α (TNF-α) | Serum level of IL-1β (IL-1β) | Number of writhing (20 min) (Mean ± SD) (mice)
10.4 | 3 |  | CS(=O)(=O)Oc1ccc(=O)n(-c2ccc(S(N)(=O)=O)cc2)n1 [Compound 7a, 6-Oxo-1–(4-sulfamoylphenyl)-1,6-dihydropyridazin-3-yl methanesulfonate] | normal texture | 0.52 ± 0.04 | 0.46 ± 0.09 | 0.44 ± 0.05 | 56 | 0.34 ± 0.05 | 67.5 | significantly lowered | significantly lowered | 
8.5 | 6.5 | 110 | NS(=O)(=O)c1ccc(-n2nc(OS(=O)(=O)c3ccc(F)cc3)ccc2=O)cc1 [Compound 7f, 6-Oxo-1–(4-sulfamoylphenyl)-1,6-dihydropyridazin-3-yl 4-fluorobenzenesulfonate] |  |  |  |  |  |  |  |  |  | 
8.4 | 3.5 | 80 | Cc1ccc(S(=O)(=O)Oc2ccc(=O)n(-c3ccc(S(N)(=O)=O)cc3)n2)cc1 [Compound 7d, 6-Oxo-1–(4-sulfamoylphenyl)-1,6-dihydropyridazin-3-yl 4-methylbenzenesulfonate] |  |  |  |  |  |  |  |  |  | 
6.5 | 5 | 90 | COc1ccc(S(=O)(=O)Oc2ccc(=O)n(-c3ccc(S(N)(=O)=O)cc3)n2)cc1 [Compound 7e, 6-Oxo-1–(4-sulfamoylphenyl)-1,6-dihydropyridazin-3-yl 4-methoxybenzenesulfonate] |  |  |  |  |  |  |  |  |  | 
8.4 | 4 | 80 | NS(=O)(=O)c1ccc(-n2nc(OS(=O)(=O)c3ccccc3)ccc2=O)cc1 [Compound 7c, 6-Oxo-1–(4-sulfamoylphenyl)-1,6-dihydropyridazin-3-yl benzenesulfonate] |  |  |  |  |  |  |  |  |  | 
12.6 | 2.5 | 60 | CCS(=O)(=O)Oc1ccc(=O)n(-c2ccc(S(N)(=O)=O)cc2)n1 [Compound 7b, 6-Oxo-1–(4-sulfamoylphenyl)-1,6-dihydropyridazin-3-yl ethanesulfonate] | mild inflammation | 0.5 ± 0.07 | 0.44 ± 0.09 | 0.58 ± 0.04 | 38.5 | 0.48 ± 0.03 | 65.0 | significantly lowered | significantly lowered | 
